Measurements: US9132140B2, “Boronic acid derivatives and therapeutic uses thereof” (Rempex Pharmaceuticals, Inc., priority 2013, dated 2015)

Columns and labels:
Format in all cases: cell-based, Klebsiella pneumoniae
KPM1108 (NDM, KPC) = test system: KPM1108 (NDM, KPC)
From the text: (§1) Several strains simultaneously expressing both class A and class B carbapenemases, which were constructed using conjugation, were also included in the panel.

KP1054 (VIM-1, SHV-11) = test system: KP1054 (VIM-1, SHV-11)
From the text: as §1

KPM1109 (NDM, KPC) = test system: KPM1109 (NDM, KPC)
From the text: as §1

KPM1344 (VIM-1) = test system: KPM1344 (VIM-1)
From the text: as §1

KP1004 (KPC TEM SHV) = test system: KP1004 (KPC TEM SHV)
From the text: as §1

KPM1099 (NDM, KPC) = test system: KPM1099 (NDM, KPC)
From the text: as §1

KPM1110 (NDM, KPC) = test system: KPM1110 (NDM, KPC)
From the text: as §1

KP1065 (VIM-1, SHV-11) = test system: KP1065 (VIM-1, SHV-11)
From the text: as §1

[1] = test system: KP1084 (KPC-3, SHV-11, TEM-1)
From the text: as §1

KP1014 (Vim-1, TEM, SHV) = test system: KP1014 (Vim-1, TEM, SHV)
From the text: as §1

KP1061 (KPC TEM SHV) = test system: KP1061 (KPC TEM SHV)
From the text: as §1

KPM1097 (NDM, KPC) = test system: KPM1097 (NDM, KPC)
From the text: as §1

KP1097 (IMP-1 SHV) = test system: KP1097 (IMP-1 SHV)
From the text: as §1

KPM1122 (NDM, VIM) = test system: KPM1122 (NDM, VIM)
From the text: as §1

KPM1123 (KPC-2 TEM SHV) = test system: KPM1123 (KPC-2 TEM SHV)
From the text: as §1

KP1070 (KPC TEM SHV) = test system: KP1070 (KPC TEM SHV)
From the text: as §1

`Nn1cnnc1S[C@H]1Cc2cccc(C(=O)O)c2OB1O` [Compound 14, (R)-3-(4-amino-4H-1,2,4-triazol-3-ylthio)-2-hydroxy-3,4-dihydro-2H-benzo[e][1,2]oxaborinine-8-carboxylic acid] was tested, and the “Meropenem + 14 MIC” value (KPM1108 (NDM, KPC)) was “Z (key: X: MIC of less than 1 μg/mL; Y: MIC of 1 μg/mL to 10 μg/mL; Z: MIC of greater than 10 μg/mL)”, the “Imipenem + 14 MIC” value (KP1054 (VIM-1, SHV-11)) was “X (key: X: MIC of less than 1 μg/mL; Y: MIC of 1 μg/mL to 10 μg/mL; Z: MIC of greater than 10 μg/mL)” and the “Meropenem + 14 MIC” value (KP1054 (VIM-1, SHV-11)) was “X (key: X: MIC of less than 1 μg/mL; Y: MIC of 1 μg/mL to 10 μg/mL; Z: MIC of greater than 10 μg/mL)”. The “Imipenem + 14 MIC” value (KPM1109 (NDM, KPC)) was “X (key: X: MIC of less than 1 μg/mL; Y: MIC of 1 μg/mL to 10 μg/mL; Z: MIC of greater than 10 μg/mL)”, the “Meropenem + 14 MIC” value (KPM1109 (NDM, KPC)) was “Y (key: X: MIC of less than 1 μg/mL; Y: MIC of 1 μg/mL to 10 μg/mL; Z: MIC of greater than 10 μg/mL)” and the “Imipenem + 14 MIC” value (KPM1344 (VIM-1)) was “X (key: X: MIC of less than 1 μg/mL; Y: MIC of 1 μg/mL to 10 μg/mL; Z: MIC of greater than 10 μg/mL)”. For the same molecule, the “Meropenem + 14 MIC” value (KPM1344 (VIM-1)) was “Y (key: X: MIC of less than 1 μg/mL; Y: MIC of 1 μg/mL to 10 μg/mL; Z: MIC of greater than 10 μg/mL)”, the “Imipenem + 14 MIC” value (KP1004 (KPC TEM SHV)) was “X (key: X: MIC of less than 1 μg/mL; Y: MIC of 1 μg/mL to 10 μg/mL; Z: MIC of greater than 10 μg/mL)” and the “Meropenem + 14 MIC” value (KP1004 (KPC TEM SHV)) was “X (key: X: MIC of less than 1 μg/mL; Y: MIC of 1 μg/mL to 10 μg/mL; Z: MIC of greater than 10 μg/mL)”. For the same molecule, the “Imipenem + 14 MIC” value (KPM1099 (NDM, KPC)) was “Y (key: X: MIC of less than 1 μg/mL; Y: MIC of 1 μg/mL to 10 μg/mL; Z: MIC of greater than 10 μg/mL)”, the “Meropenem + 14 MIC” value (KPM1099 (NDM, KPC)) was “Y (key: X: MIC of less than 1 μg/mL; Y: MIC of 1 μg/mL to 10 μg/mL; Z: MIC of greater than 10 μg/mL)” and the “Imipenem + 14 MIC” value (KPM1110 (NDM, KPC)) was “X (key: X: MIC of less than 1 μg/mL; Y: MIC of 1 μg/mL to 10 μg/mL; Z: MIC of greater than 10 μg/mL)”. For the same molecule, the “Meropenem + 14 MIC” value (KPM1110 (NDM, KPC)) was “X (key: X: MIC of less than 1 μg/mL; Y: MIC of 1 μg/mL to 10 μg/mL; Z: MIC of greater than 10 μg/mL)”, the “Imipenem + 14 MIC” value (KP1065 (VIM-1, SHV-11)) was “X (key: X: MIC of less than 1 μg/mL; Y: MIC of 1 μg/mL to 10 μg/mL; Z: MIC of greater than 10 μg/mL)” and the “Meropenem + 14 MIC” value (KP1065 (VIM-1, SHV-11)) was “Z (key: X: MIC of less than 1 μg/mL; Y: MIC of 1 μg/mL to 10 μg/mL; Z: MIC of greater than 10 μg/mL)”. For the same molecule, the “Imipenem + 14 MIC” value [1] was “Y (key: X: MIC of less than 1 μg/mL; Y: MIC of 1 μg/mL to 10 μg/mL; Z: MIC of greater than 10 μg/mL)”, the “Meropenem + 14 MIC” value [1] was “Y (key: X: MIC of less than 1 μg/mL; Y: MIC of 1 μg/mL to 10 μg/mL; Z: MIC of greater than 10 μg/mL)” and the “Imipenem + 14 MIC” value (KP1014 (Vim-1, TEM, SHV)) was “X (key: X: MIC of less than 1 μg/mL; Y: MIC of 1 μg/mL to 10 μg/mL; Z: MIC of greater than 10 μg/mL)”. The “Meropenem + 14 MIC” value (KP1014 (Vim-1, TEM, SHV)) was “X (key: X: MIC of less than 1 μg/mL; Y: MIC of 1 μg/mL to 10 μg/mL; Z: MIC of greater than 10 μg/mL)”, the “Imipenem + 14 MIC” value (KP1061 (KPC TEM SHV)) was “X (key: X: MIC of less than 1 μg/mL; Y: MIC of 1 μg/mL to 10 μg/mL; Z: MIC of greater than 10 μg/mL)” and the “Meropenem + 14 MIC” value (KP1061 (KPC TEM SHV)) was “X (key: X: MIC of less than 1 μg/mL; Y: MIC of 1 μg/mL to 10 μg/mL; Z: MIC of greater than 10 μg/mL)”. For the same molecule, the “Imipenem + 14 MIC” value (KPM1097 (NDM, KPC)) was “X (key: X: MIC of less than 1 μg/mL; Y: MIC of 1 μg/mL to 10 μg/mL; Z: MIC of greater than 10 μg/mL)”, the “Meropenem + 14 MIC” value (KPM1097 (NDM, KPC)) was “X (key: X: MIC of less than 1 μg/mL; Y: MIC of 1 μg/mL to 10 μg/mL; Z: MIC of greater than 10 μg/mL)” and the “Imipenem + 14 MIC” value (KP1097 (IMP-1 SHV)) was “X (key: X: MIC of less than 1 μg/mL; Y: MIC of 1 μg/mL to 10 μg/mL; Z: MIC of greater than 10 μg/mL)”. The “Meropenem + 14 MIC” value (KP1097 (IMP-1 SHV)) was “Y (key: X: MIC of less than 1 μg/mL; Y: MIC of 1 μg/mL to 10 μg/mL; Z: MIC of greater than 10 μg/mL)”, the “Imipenem + 14 MIC” value (KPM1122 (NDM, VIM)) was “Y (key: X: MIC of less than 1 μg/mL; Y: MIC of 1 μg/mL to 10 μg/mL; Z: MIC of greater than 10 μg/mL)” and the “Meropenem + 14 MIC” value (KPM1122 (NDM, VIM)) was “Y (key: X: MIC of less than 1 μg/mL; Y: MIC of 1 μg/mL to 10 μg/mL; Z: MIC of greater than 10 μg/mL)”. For the same molecule, the “Imipenem + 14 MIC” value (KPM1123 (KPC-2 TEM SHV)) was “X (key: X: MIC of less than 1 μg/mL; Y: MIC of 1 μg/mL to 10 μg/mL; Z: MIC of greater than 10 μg/mL)”, the “Meropenem + 14 MIC” value (KPM1123 (KPC-2 TEM SHV)) was “X (key: X: MIC of less than 1 μg/mL; Y: MIC of 1 μg/mL to 10 μg/mL; Z: MIC of greater than 10 μg/mL)” and the “Imipenem + 14 MIC” value (KP1070 (KPC TEM SHV)) was “X (key: X: MIC of less than 1 μg/mL; Y: MIC of 1 μg/mL to 10 μg/mL; Z: MIC of greater than 10 μg/mL)”. The “Meropenem + 14 MIC” value (KP1070 (KPC TEM SHV)) was “X (key: X: MIC of less than 1 μg/mL; Y: MIC of 1 μg/mL to 10 μg/mL; Z: MIC of greater than 10 μg/mL)”.
